From patent publication US4053604A (priority 1975, dated 1977)
Several values for one entry are separate records, joined by “and”; a condition that tells them apart may be missing. Equal values may be shown once. Entries after “also recorded” stand apart in the source; their conditions may differ.

Key:
[1] = onset, duration of activity and cardiovascular effect (general statement); assay type: in vivo
[2] = anesthesia time of rats exposed to halothane anesthesia (recovery of righting reflex); assay type: in vivo, male albino rats (Sprague-Dawley)
Method: The effects of Compound I on halothane-induced anesthesia were assessed using 20 rats for each dose or time interval determination. The experiments were performed on male albino rats (Sprague-Dawley) weighing from 180-220 g. A schematic representation of the apparatus used is illustrated in FIG. 1. The apparatus consists of a rectangular box made of transparent plastic (115 cm long × 28 cm high × 28 cm wide) which is divided into 4 equal chambers by perforated walls. The box rotates around a hollow axis through which gases can be delivered at several proportions from cylinders, through their respective flowmeters. An in-line halothane vaporizer is placed just before the gases reach the chambers. There is an air-tight door to every chamber through which two animals, one treated and one control, are introduced. The gases are delivered at one end of the box and suction is applied to the other end to take up the gases after flowing through the chambers. An in-line water manometer monitors the resulting pressure. This pressure is kept at 0-5 mm H2 O to make certain the gases in the anesthetic chambers remain at atmospheric pressure. The mixture of gases is delivered at a rate of 15 l/min. The inhalation anesthetic gases are delivered for ten minutes prior to the introduction of the animals into the chambers to assure an even distribution in the four chambers. The chambers rotate at four rev/min forcing the animals to tumble and allowing the experimenter to accurately time the loss and recovery of the righting reflex. Induction times are recorded as the time interval elapsed between the beginning of exposure of the animals to the gases and the moment in which they lose their righting reflex.
Groups of control animals (four at a time) were subjected to halothane concentrations ranging from 0.5 to 2.5% in a mixture of 95% O2 -5% CO2, and the induction times thus obtained were used to calculate concentration-reponse curves. Since a certain time elapsed between putting the first and the last rat into their respective chambers, each animal was timed separately with a stopwatch. […] This intermediate concentration of halothane was then used to study the effects of increasing doses of the test compound on the induction times and anesthesia times.
The animals were pretreated by administering the test compounds in dosages ranging from 10 to 500 μg/kg, i.v., at 5, 30, 60, 120, 240 and 360 minutes prior to their exposure to halothane. As soon as all animals lost their righting reflex, the O2 -halothane flow was discontinued and replaced by an equal flow of air. The animals were allowed to remain in the rotating chambers until they regained their righting reflex. Anesthesia times were determined as the interval between the time required to lose and the time to regain the righting reflex. Air flushing of the anesthetic chambers was performed after each determination and the entire procedure repeated with another group of animals for the determination of the effect of a new dose or concentration.
Drugs used in this study include: droperidol, phenoperidine hydrochloride, halothane and Compound I in the form of its hydrochloride salt. Phenoperidine hydrochloride and Compound I (hydrochloride) were dissolved separately in a warm solution of 0.9% sodium chloride. Droperidol was suspended in saline with the aid of a drop ot Tween 80 (Tween 80 is a registered trademark for a complex mixture of polyoxyethylene ethers of mixed partial oleic esters of sorbitol anhydride). Dosages are expressed in this study as the salt form of the compound where applicable. When the experimental protocol called for the concomitant administration of two drugs, these were mixed in the syringe and administered intravenously. The drugs were injected in a volume of 0.1 ml/100 g body weight.
The statistical analysis of the data was performed using Student's […]. […]

[3] = behavioral changes and side effects in cebus monkeys; assay type: in vivo; details: for Behavioral Changes / Side Effects / Duration / Onset / time of onset of side effect (Extrapyramidal): individual monkey
[4] = respiratory minute volume and mean arterial blood pressure in rats; assay type: in vivo; details: with phenoperidine, intravenously, doses substantially greater than required for NLA; in words

## CC(C)[C@@]1(O)CCN2C[C@@H]3c4ccccc4CCc4cccc(c43)[C@H]2C1 [Compound 1, (+)(4a,13b-trans)-(3-hydroxy,13b-trans)-3-isopropyl-2,- 3,4,4a,8,9,13b,14-octahydro-lH-benzo[6,7]cyclohepta[1,2,3-de]pyrido[2,1-a]isoquinolin-3-ol]
[1]; alone or in combination with a suitable analgesic agent, in words
  effect on the cardiovascular system: little or no effect on the cardiovascular system
[1]; in words
  onset of action: quick onset of action
[1]; relatively short duration
  duration of activity: up to four
[2]; 10 μg/kg i.v., 5 min before 0.75% halothane
  Anesthesia time, treated: 3.67 min
[2]; 10 μg/kg i.v., 5 min before 1.0% halothane
  Anesthesia time, treated: 3.16 min
[2]; 10 μg/kg i.v., 5 min before 1.5% halothane
  Anesthesia time, treated: 3.84 min
[2]; 10 μg/kg i.v., 5 min before 2.0% halothane
  Anesthesia time, treated: 4.68 min
[2]; 10 μg/kg i.v., 5 min before 2.5% halothane
  Anesthesia time, treated: 5.42 min
[2]; 25 μg/kg i.v., 5 min before 0.75% halothane
  Anesthesia time, treated: 3.78 min
[2]; 25 μg/kg i.v., 5 min before 1.0% halothane
  Anesthesia time, treated: 3.62 min
[2]; 25 μg/kg i.v., 5 min before 1.5% halothane
  Anesthesia time, treated: 4.61 min
[2]; 25 μg/kg i.v., 5 min before 2.0% halothane
  Anesthesia time, treated: 5.09 min
[2]; 25 μg/kg i.v., 5 min before 2.5% halothane
  Anesthesia time, treated: 5.26 min
[2]; 50 μg/kg i.v., 5 min before 0.75% halothane
  Anesthesia time, treated: 5.16 min
[2]; 50 μg/kg i.v., 5 min before 1.0% halothane
  Anesthesia time, treated: 4.67 min
[2]; 50 μg/kg i.v., 5 min before 1.5% halothane
  Anesthesia time, treated: 4.59 min
[2]; 50 μg/kg i.v., 5 min before 2.0% halothane
  Anesthesia time, treated: 4.49 min
[2]; 50 μg/kg i.v., 5 min before 2.5% halothane
  Anesthesia time, treated: 4.96 min
[2]; 100 μg/kg i.v., 5 min before 0.75% halothane
  Anesthesia time, treated: 6.33 min
[2]; 100 μg/kg i.v., 5 min before 1.0% halothane
  Anesthesia time, treated: 5.34 min
[2]; 100 μg/kg i.v., 5 min before 1.5% halothane
  Anesthesia time, treated: 4.79 min
[2]; 100 μg/kg i.v., 5 min before 2.0% halothane
  Anesthesia time, treated: 5.49 min
[2]; 100 μg/kg i.v., 5 min before 2.5% halothane
  Anesthesia time, treated: 5.62 min
[2]; 200 μg/kg i.v., 5 min before 0.75% halothane
  Anesthesia time, treated: 6.54 min
[2]; 200 μg/kg i.v., 5 min before 1.0% halothane
  Anesthesia time, treated: 5.37 min
[2]; 200 μg/kg i.v., 5 min before 1.5% halothane
  Anesthesia time, treated: 4.94 min
[2]; 200 μg/kg i.v., 5 min before 2.0% halothane
  Anesthesia time, treated: 5.33 min
[2]; 200 μg/kg i.v., 5 min before 2.5% halothane
  Anesthesia time, treated: 5.89 min
[2]; 250 μg/kg i.v., 5 min before 0.75% halothane
  Anesthesia time, treated: 6.26 min
[2]; 250 μg/kg i.v., 5 min before 1.0% halothane
  Anesthesia time, treated: 5.81 min
[2]; 250 μg/kg i.v., 5 min before 1.5% halothane
  Anesthesia time, treated: 5.52 min
[2]; 250 μg/kg i.v., 5 min before 2.0% halothane
  Anesthesia time, treated: 5.92 min
[2]; 250 μg/kg i.v., 5 min before 2.5% halothane
  Anesthesia time, treated: 6.37 min
[2]; 500 μg/kg i.v., 5 min before 1.0% halothane
  Anesthesia time, treated: 5.69 min
[2]; five minutes after i.v. administration, 1% halothane
  increase of anesthesia time: approximately 70%
[2]; halothane, in words
  effect on anesthesia time: increased considerably
[2]; plus 25 μg/kg i.v. phenoperidine hydrochloride, 1% halothane (FIG. 3), in words
  duration of anesthesia effect with added analgesic: potentiates the duration of anesthesia effect
[3]; Compound 1, 5 μg/kg i.v.
  Behavioral Changes: None
  Side Effects: None
[3]; Compound 1, 10 μg/kg i.v.
  Behavioral Changes: Passive; also recorded: Huddle
  Duration: 3 h and > 4 h and 2 h
  Onset: 30 min and 20 min and 15 min and 60 min
  Side Effects: None
[3]; Compound 1, 20 μg/kg i.v.
  Behavioral Changes: Passive-Huddle
  Duration: 4 h and > 5 h and 3 h
  Onset: 20 min and 15 min
  Side Effects: None
[3]; Compound 1, 50 μg/kg i.v.
  Behavioral Changes: Huddle
  Duration: > 4 h
  Onset: 20 min and 10 min
  Side Effects: Extrapyramidal and None
  time of onset of side effect (Extrapyramidal): 30 min and 40 min
[3]; Compound 1, 100 μg/kg i.v.
  Behavioral Changes: Huddle
  Duration: > 24 h
  Onset: 10 min and 5 min
  Side Effects: Extrapyramidal
  time of onset of side effect (Extrapyramidal): 15 min and 10 min
[3]; i.v.
  doses at which signs of excitomotor agitation (extrapyramidal excitation) were observed: 0.05 to 0.1 mg/kg
[3]; in words
  eliciting behavioral changes: effective in eliciting behavioral changes at very small doses
[4]
  effect on respiratory depression caused by analgesic agents: only slightly changed
